Literature values in PubChem BioAssay AID1259409 (Chemical Carcinogenesis Research Information System (CCRIS), 2018).

System: rodent chemically induced tumor inhibition, incidence and multiplicity
Experiment: CCRIS tumor inhibitor studies
Conditions: Route [Inhibitor]: ORAL, Promoter: NONE USED

Structure (SMILES): O=c1ccc2ccccc2o1
- tumour outcome (control, treated, inhibition, significance) (Carcinogen: 7,12-DIMETHYLBENZ(A)ANTHRACENE, 57-97-6, Dose [Inhibitor]: 0.034 MMOL/G IN DIET BEGINNING 1 D PRIOR TO CARCINOGEN DOSE AND CONTINUING FOR 8 D (STUDY DURATION: 23 WK), Species: RAT, Strain/Sex: SPRAGUE-DAWLEY/FEMALE, Target Tissue: Type of Lesion: MAMMARY GLAND: TUMOR, Dose [Carcinogen]: 12 MG IN 1.0 ML OLIVE OIL ONCE): 86%, 31%, 64%, p<0.01
- tumour outcome (control, treated, inhibition, significance) (Carcinogen: 7,12-DIMETHYLBENZ[A]ANTHRACENE, 57-97-6, Dose [Inhibitor]: 0.068 MMOL/G IN DIET BEGINNING 7 D PRIOR TO CARCINOGEN DOSE AND CONTINUING FOR 8 D (STUDY DURATION: 23 WK), Species: RAT, Strain/Sex: SPRAGUE-DAWLEY/FEMALE, Target Tissue: Type of Lesion: MAMMARY GLAND: TUMOR, Dose [Carcinogen]: 12 MG IN 1.0 ML OLIVE OIL): 86%, 14%, 84%, p<0.01,
- tumour outcome (control, treated, inhibition, significance) (Carcinogen: BENZO[A]PYRENE, 50-32-8, Dose [Inhibitor]: 0.068 MMOL/G IN DIET FOR 5 WK BEGINNING 1 WK PRIOR TO CARCINOGEN TREATMENT (STUDY DURATION: 21 WK), Species: MOUSE, Strain/Sex: ICR/FEMALE, Target Tissue: Type of Lesion: FORESTOMACH: TUMOR, Dose [Carcinogen]: 1 MG IN 0.2 ML CORN OIL, 2/WK FOR 4 WK): 100%, 61%, 39%, p<0.05
